Measured values published in article PMC6060862, “Prediction and characterization of a novel hemocyanin-derived antimicrobial peptide from shrimp Litopenaeus vannamei” (Amino Acids, 2018).
Values after ≈ are worked out from the molar mass of the structure shown. Like-named read-outs stand apart in the source and are kept apart here. Residues, ends and D or L forms follow the SMILES beside them.

Experiments:
[1] = test system: Vibrio fluvialis; assay type: cell-based
Experimental: (§1) Seven bacteria including Vibrio parahaemolyticus, Vibrio fluvialis, Vibrio alginolyticus, Escherichia coli, Aeromonas hydrophila, Staphylococcus aureus and Streptococcus pyogenes were grown in LB medium at 30 °C and diluted to 10^6 CFU/mL in 0.01 M, pH 7.6 PBS. Peptides were diluted in PBS. The bacteria and diluted peptides were mixed in equal volumes, and then incubated at 30 °C for 2 h. […] Experiments were carried out in triplicate and repeated at least three times. Data are presented as mean ± standard deviation. GraphPad prism 6 was used to analyze the data with the statistical significance determined by one-way ANOVA and Student’s t test, and all experiments were carried out in triplicate.

[2] = test system: Staphylococcus aureus; assay type: cell-based
Experimental: as §1

[3] = test system: Aeromonas hydrophila; assay type: cell-based
Experimental: as §1

[4] = test system: Vibrio alginolyticus; assay type: cell-based
Experimental: as §1

[5] = test system: Escherichia coli; assay type: cell-based
Experimental: as §1

[6] = test system: Streptococcus pyogenes; assay type: cell-based
Experimental: as §1

[7] = test system: seven bacteria (V. parahaemolyticus, V. fluvialis, V. alginolyticus, E. coli, A. hydrophila, S. aureus, S. pyogenes); assay: MIC summarised over the seven bacteria (GB, average MIC, fold change); assay type: cell-based; conditions: for GB: summary of the MICs over the seven bacteria, footnote b not given; for decrease of antibacterial activity relative to L1: from MICs of Table 3, except for S.pyogenes
Experimental: as §1

[8] = test system: Vibrio parahaemolyticus; assay: Minimal inhibitory concentration (MIC); assay type: cell-based; conditions: Gram negative; bacteria 10^6 CFU/mL in 0.01 M PBS pH 7.6 mixed with equal volume of peptide in PBS, 30 °C 2 h, plated on LB agar 30 °C overnight; triplicate, repeated at least three times
Experimental: as §1

[9] = not given; remark: listed apart in the source
[10] = not given; remark: listed apart in the source
[11] = not given; remark: listed apart in the source
[12] = Gram negative, bacteria 10^6 CFU/mL in 0.01 M PBS pH 7.6 mixed with equal volume of peptide in PBS, 30 °C 2 h, plated on LB agar 30 °C overnight, triplicate, repeated at least three times
[13] = Gram positive, bacteria 10^6 CFU/mL in 0.01 M PBS pH 7.6 mixed with equal volume of peptide in PBS, 30 °C 2 h, plated on LB agar 30 °C overnight, triplicate, repeated at least three times

MIC V. fluvialis ([1]; 2 h, pH 7.6)	MIC S. aureus ([2]; 2 h, pH 7.6)	MIC A. hydrophila ([3]; 2 h, pH 7.6)	MIC V. alginolyticus ([4]; 2 h, pH 7.6)	MIC E. coli ([5]; 2 h, pH 7.6)	MIC S. pyogenes ([6]; 2 h, pH 7.6)	SMILES	MIC V. fluvialis [1, 12]	MIC S. aureus [2, 13]	MIC A. hydrophila ([3]; Gram negative (Table 2), bacteria 10^6 CFU/mL in 0.01 M PBS pH 7.6 mixed with equal volume of peptide in PBS, 30 °C 2 h, plated on LB agar 30 °C overnight, triplicate, repeated at least three times)	MIC V. alginolyticus [4, 12]	MIC E. coli [5, 12]	MIC S. pyogenes [6, 13]	GB [7]	MIC V. parahaemolyticus [8]	decrease of antibacterial activity relative to L1 [7]	random coil content	β-strand content [9]	β-turns content [10]	α-helical content [11]	average MIC relative to the average MIC of L1 ([7]; over the seven bacteria)
–	–	–	–	–	–	NC[C@H]1O[C@H](O[C@H]2[C@H](O)[C@@H](O[C@H]3O[C@H](CO)[C@@H](O)[C@H](N)[C@H]3O)[C@H](N)C[C@@H]2N)[C@H](O)[C@@H](O)[C@@H]1O [Kanamycin, reference compound]	1 µg/mL (≈ 2.06 µM)	2 µg/mL (≈ 4.13 µM)	1 µg/mL (≈ 2.06 µM)	0.5 µg/mL (≈ 1.03 µM)	2 µg/mL (≈ 4.13 µM)	1 µg/mL (≈ 2.06 µM)	1.1 µg/mL	1 µg/mL (≈ 2.06 µM)	–	–	–	–	–	–
250 µg/mL (≈ 148 µM)	> 250 µg/mL	125 µg/mL (≈ 74.2 µM)	15.6 µg/mL (≈ 9.26 µM)	125 µg/mL (≈ 74.2 µM)	125 µg/mL (≈ 74.2 µM)	CC[C@H](C)[C@H](NC(=O)[C@H](Cc1c[nH]cn1)NC(=O)[C@H](C)NC(=O)[C@@H](NC(=O)[C@H](CC(N)=O)NC(=O)[C@H](Cc1c[nH]cn1)NC(=O)[C@H](CC(C)C)NC(=O)[C@H](C)NC(=O)CNC(=O)[C@H](Cc1ccc(O)cc1)NC(=O)[C@@H](N)Cc1ccc(O)cc1)[C@@H](C)O)C(=O)N[C@H](C(=O)N[C@@H](CC(C)C)C(=O)NCC(=O)N[C@@H](CCCNC(=N)N)C(N)=O)C(C)C [L12] (H-YYGALHNTAHIVLGR-NH2)	–	–	–	–	–	–	125.0 µg/mL	250 µg/mL (≈ 148 µM)	–	–	–	–	–	–
250 µg/mL (≈ 143 µM)	> 250 µg/mL	15.6 µg/mL (≈ 8.93 µM)	250 µg/mL (≈ 143 µM)	15.6 µg/mL (≈ 8.93 µM)	15.6 µg/mL (≈ 8.93 µM)	CC[C@H](C)[C@H](NC(=O)[C@H](CCCCN)NC(=O)[C@H](Cc1c[nH]cn1)NC(=O)[C@H](CC(C)C)NC(=O)[C@H](CC(C)C)NC(=O)CNC(=O)[C@H](CC(N)=O)NC(=O)[C@@H](N)C(C)C)C(=O)N[C@@H](Cc1ccc(O)cc1)C(=O)NCC(=O)N[C@@H](CC(N)=O)C(=O)N[C@H](C(=O)N[C@@H](CCCNC(=N)N)C(=O)N[C@@H](Cc1ccc(O)cc1)C(=O)N[C@@H](CO)C(N)=O)[C@@H](C)CC [M1] (H-VNGLLHKIYGNIRYS-NH2)	–	–	–	–	–	–	–	62.5 µg/mL (≈ 35.8 µM)	2- to 64 fold	–	–	–	–	–
> 250 µg/mL	> 250 µg/mL	15.6 µg/mL (≈ 8.24 µM)	> 250 µg/mL	7.8 µg/mL (≈ 4.12 µM)	62.5 µg/mL (≈ 33 µM)	CC[C@H](C)[C@H](NC(=O)[C@H](CC(N)=O)NC(=O)[C@H](CC(=O)O)NC(=O)[C@H](Cc1ccc(O)cc1)NC(=O)[C@@H](NC(=O)[C@H](CCCCN)NC(=O)[C@H](Cc1c[nH]cn1)NC(=O)[C@H](CC(C)C)NC(=O)[C@H](CC(C)C)NC(=O)[C@H](Cc1ccccc1)NC(=O)[C@H](CC(N)=O)NC(=O)[C@@H](N)C(C)C)[C@@H](C)CC)C(=O)N[C@@H](CCCNC(=N)N)C(=O)N[C@@H](Cc1ccc(O)cc1)C(=O)N[C@@H](CO)C(N)=O [M2] (H-VNFLLHKIYDNIRYS-NH2)	–	–	–	–	–	–	69.0 µg/mL	62.5 µg/mL (≈ 33 µM)	2- to 64 fold	–	–	–	–	–
62.5 µg/mL (≈ 35 µM)	62.5 µg/mL (≈ 35 µM)	3.9 µg/mL (≈ 2.18 µM)	3.9 µg/mL (≈ 2.18 µM)	3.9 µg/mL (≈ 2.18 µM)	62.5 µg/mL (≈ 35 µM)	CC[C@H](C)[C@H](NC(=O)[C@H](CCCCN)NC(=O)[C@H](Cc1c[nH]cn1)NC(=O)[C@H](CC(C)C)NC(=O)[C@H](CC(C)C)NC(=O)[C@H](Cc1ccccc1)NC(=O)[C@H](CC(N)=O)NC(=O)[C@@H](N)C(C)C)C(=O)N[C@@H](Cc1ccc(O)cc1)C(=O)NCC(=O)N[C@@H](CC(N)=O)C(=O)N[C@H](C(=O)N[C@@H](CCCNC(=N)N)C(=O)N[C@@H](CC(=O)O)C(=O)N[C@@H](CO)C(N)=O)[C@@H](C)CC [M3] (H-VNFLLHKIYGNIRDS-NH2)	–	–	–	–	–	–	14.2 µg/mL	31.2 µg/mL (≈ 17.4 µM)	no change	–	–	–	–	–
125 µg/mL (≈ 72.5 µM)	> 250 µg/mL	31.3 µg/mL (≈ 18.1 µM)	31.3 µg/mL (≈ 18.1 µM)	> 250 µg/mL	125 µg/mL (≈ 72.5 µM)	CC[C@H](C)[C@H](NC(=O)[C@H](C)NC(=O)[C@H](CC(=O)O)NC(=O)[C@H](CCCNC(=N)N)NC(=O)[C@@H](NC(=O)[C@@H](N)CCCNC(=N)N)[C@@H](C)CC)C(=O)N[C@@H](C)C(=O)N[C@@H](Cc1c[nH]cn1)C(=O)NCC(=O)N[C@@H](Cc1ccc(O)cc1)C(=O)N[C@H](C(=O)N[C@H](C(=O)N[C@@H](CC(=O)O)C(=O)N[C@@H](CCCCN)C(=O)N[C@H](C(N)=O)C(C)C)C(C)C)[C@@H](C)CC [L10] (H-RIRDAIAHGYIVDKV-NH2)	–	–	–	–	–	–	113.3 µg/mL	250 µg/mL (≈ 145 µM)	–	–	–	–	–	–
250 µg/mL (≈ 145 µM)	250 µg/mL (≈ 145 µM)	31.3 µg/mL (≈ 18.2 µM)	250 µg/mL (≈ 145 µM)	> 250 µg/mL	250 µg/mL (≈ 145 µM)	CC[C@H](C)[C@H](NC(=O)[C@H](CCCNC(=N)N)NC(=O)[C@H](CO)NC(=O)[C@H](CCC(=O)O)NC(=O)[C@@H](NC(=O)[C@@H](NC(=O)[C@H](CC(C)C)NC(=O)[C@H](CC(C)C)NC(=O)[C@H](CC(=O)O)NC(=O)[C@H](CCCNC(=N)N)NC(=O)[C@@H](NC(=O)[C@H](CCCNC(=N)N)NC(=O)[C@H](C)NC(=O)[C@@H](NC(=O)CN)C(C)C)[C@@H](C)CC)[C@@H](C)CC)[C@@H](C)CC)C(N)=O [L8] (H-GVARIRDLLIIESRI-NH2; N-terminus and C-terminus assumed)	–	–	–	–	–	–	185.8 µg/mL	250 µg/mL (≈ 145 µM)	–	–	–	–	–	–
125 µg/mL (≈ 78.9 µM)	> 250 µg/mL	250 µg/mL (≈ 158 µM)	125 µg/mL (≈ 78.9 µM)	> 250 µg/mL	250 µg/mL (≈ 158 µM)	CC(C)C[C@H](NC(=O)[C@H](CCCCN)NC(=O)[C@H](CCC(N)=O)NC(=O)[C@@H](NC(=O)[C@H](C)NC(=O)[C@H](CCC(=O)O)NC(=O)CNC(=O)CN)C(C)C)C(=O)N[C@H](C(=O)N[C@@H](CCCNC(=N)N)C(=O)N[C@@H](CCC(=O)O)C(=O)N[C@H](C(=O)N[C@@H](CCCCN)C(=O)N[C@@H](CC(=O)O)C(=O)NCC(N)=O)C(C)C)C(C)C [L2] (H-GGEAVQKLVREVKDG-NH2; N-terminus and C-terminus assumed)	–	–	–	–	–	–	205.1 µg/mL	250 µg/mL (≈ 158 µM)	–	–	–	–	–	tenfold

SMILES	MIC V. fluvialis ([1]; 2 h, pH 7.6)	MIC S. aureus ([2]; 2 h, pH 7.6)	MIC A. hydrophila ([3]; 2 h, pH 7.6)	MIC V. alginolyticus ([4]; 2 h, pH 7.6)	MIC E. coli ([5]; 2 h, pH 7.6)	MIC S. pyogenes ([6]; 2 h, pH 7.6)	MIC V. fluvialis [1, 12]	MIC S. aureus [2, 13]	MIC A. hydrophila ([3]; Gram negative (Table 2), bacteria 10^6 CFU/mL in 0.01 M PBS pH 7.6 mixed with equal volume of peptide in PBS, 30 °C 2 h, plated on LB agar 30 °C overnight, triplicate, repeated at least three times)	MIC V. alginolyticus [4, 12]	MIC E. coli [5, 12]	MIC S. pyogenes [6, 13]	GB [7]	MIC V. parahaemolyticus [8]	decrease of antibacterial activity relative to L1 [7]	random coil content	β-strand content [9]	β-turns content [10]	α-helical content [11]	average MIC relative to the average MIC of L1 ([7]; over the seven bacteria)
CC[C@H](C)[C@H](NC(=O)[C@H](CCCCN)NC(=O)[C@H](Cc1c[nH]cn1)NC(=O)[C@H](CC(C)C)NC(=O)[C@H](CC(C)C)NC(=O)[C@H](Cc1ccccc1)NC(=O)[C@H](CC(N)=O)NC(=O)[C@@H](N)C(C)C)C(=O)N[C@@H](Cc1ccc(O)cc1)C(=O)NCC(=O)N[C@@H](CC(N)=O)C(=O)N[C@H](C(=O)N[C@@H](CCCNC(=N)N)C(=O)N[C@@H](Cc1ccc(O)cc1)C(=O)N[C@@H](CO)C(N)=O)[C@@H](C)CC [L1] (H-VNFLLHKIYGNIRYS-NH2)	62.5 µg/mL (≈ 34 µM)	62.5 µg/mL (≈ 34 µM)	3.9 µg/mL (≈ 2.12 µM)	3.9 µg/mL (≈ 2.12 µM)	3.9 µg/mL (≈ 2.12 µM)	62.5 µg/mL (≈ 34 µM)	–	–	–	–	–	–	–	31.2 µg/mL (≈ 17 µM)	–	33.4%	11.2%	24%	34.6%	–
